Measurements from article PMC10536132, “Arginine Gemini-Based Surfactants for Antimicrobial and Antibiofilm Applications: Molecular Interactions, Skin-Related Anti-Enzymatic Activity and Cytotoxicity” (Molecules, 2023).
Marks after values point to notes of the source that are not given here.

Experiments:
[1] = Apparent pKa by direct titration with NaOH; format: physicochemical; conditions: aqueous solution, concentration above the minimum aggregation concentration; pH at semi-equivalence point
Experimental: In order to determine the ionization state of these gemini surfactants at the pH used to investigate their biological properties, the apparent acid pKa was determined for each of them. The pKap value has been determined by means of a direct titration with NaOH of an aqueous solution of each compound. The surfactant concentrations used were in all cases higher than the minimum aggregation concentration, thus avoiding possible deviations in the pK value due to the monomer–aggregate balance. The pKap values can be estimated from the pH at the semi-equivalence point that is reached when the molar ratio of protonated and non-protonated species is 1:1. In these conditions, we have that the pH = pKa.
The pKa value of each compound has been determined by means of a direct titration with NaOH of an aqueous solution of each compound. The pH was measured using the pH electrode Thermo Electron Corporation ORION 8103SC and the temperature was controlled by a thermostatic bath, Heto CBN 8-30. The pKa values can be estimated from the pH at the semi-equivalence point, which contains a 1:1 molar ratio of protonated and non-protonated species; at this point, pH = pKap.

[2] = parameters: method as in doi:10.1021/la981295l; conditions: cited from earlier work
[3] = parameters: method as in doi:10.1021/la981295l; conditions: cited from earlier work; remark: listed apart in the source
[4] = test system: Pseudomonas aeruginosa PAO1 biofilm; experiment: Biofilm eradication, crystal violet; format: cell-based; conditions: P. aeruginosa PAO1, at 32 μg/mL
Experimental: (§1) The ability of these geminis to disperse and eradicate biofilms once formed on the propylene surfaces of the microtiter plates was evaluated using the same bacterial strains. […] The susceptibility of both biofilms against the tested surfactants was similar. At a low concentration of 32 μg/mL, C3(CA)2 and C3(LA)2 were able to eradicate around 60–70% of preformed biofilm; however, at this concentration, the […] hydrophobic compound, C3(OA)2, eradicated less than 30% of biofilm. At high concentrations, the eradication percentage is similar for all alkyl chains. […] In this case, at low concentrations, there is not a clear dependence between the antibiofilm properties and the spacer; however, at a high concentration, the best effectivity was obtained for the longer spacer chains.
(§2) Antibiofilm activity was assessed against biofilm-producing strains of methicillin-resistant Staphylococcus aureus (MRSA) ATCC 43300 and Pseudomonas aeruginosa PAO1. Biofilm inhibition and eradication capacities of the gemini surfactants were evaluated against adherent bacterial biofilms grown in 96-well microtiter plates. Bacteria were grown overnight in tryptic soy agar at 37 °C for 24 h. The bacteria were suspended in lysogeny broth with glucose (1%) at 1.5 × 10^8 CFU/mL.
(§3) Biofilm eradication procedure: For mature biofilm formation, 200 μL of the diluted bacterial suspension was added to each well in a 96-well microplate and incubated at 37 °C for 24 h. The wells were gently rinsed with phosphate-buffered saline (PBS) and 200 μL of the corresponding gemini surfactant solution was added to each well and incubated again at 37 °C for 24 h. Two-fold serial dilutions of the gemini surfactant were used (4–128 μg/mL). After the plates were air dried, the biofilms were stained with 50 μL of 0.1 of % crystal violet for 25 min. The plates were rinsed with water and then 150 μL of 96% ethanol containing 10% acetic acid was added to all 96-well plates to dissolve the remaining crystal violet-stained biofilm. The absorbance value was recorded at 570 nm. Each assay was conducted at least three times and the results were averaged.

[5] = test system: methicillin-resistant Staphylococcus aureus (MRSA) ATCC 43300 biofilm; experiment: Biofilm eradication, crystal violet; format: cell-based; conditions: at 32 μg/mL
Experimental: as §1, §2, §3

[6] = test system: Gram-positive and Gram-negative bacteria; experiment: Minimum inhibitory concentration (MIC), broth microdilution; format: cell-based; conditions: planktonic bacteria, 24 h at 37 °C, values only in Figure 2
Text: The Gram-positive bacteria tested include some problematic microorganisms such us L. monocytogenes; these bacteria cause listeriosis, a serious disease that has grown considerably in industrialized countries due to the increased ratio of immunosuppressed persons and the extensive use of refrigerated food. We have also tested the effectivity of these surfactants against methicillin-resistant Staphylococcus aureus (MRSA), which is known as a major cause of hospital-acquired infections and, at this time, is a remarkable public health problem. […] For comparison, this figure also includes the MIC values of a LAM (lauroyl arginine methyl ester) surfactant that can be considered the single-stranded homologue of these geminis and the BAC (benzalkonium ammonium chloride), a quaternary ammonium surfactant widely used as antiseptic.
Antimicrobial tests were carried out against the following microorganisms: Bacillus subtilis ATCC 6633, Staphylococcus epidermidis ATCC 12228, Staphylococcus aureus ATCC 29213, Listeria monocytogenes ATCC 15313, Enterococcus faecalis ATCC 29212, Escherichia coli ATCC 25922, Acinetobacter baumannii ATCC 19606, Klebsiella aerogenes ATCC 13048, methicillin-resistant Staphylococcus aureus ATCC 43300 and Pseudomonas aeruginosa PAO1. […] The growth of the microorganisms was determined visually after incubation for 24 h at 37 °C. […]

[7] = test system: Pseudomonas aeruginosa PAO1 biofilm; experiment: Biofilm inhibition, crystal violet; format: cell-based; conditions: P. aeruginosa PAO1, 24 h contact, 2–128 μg/mL tested
Experimental: (§4) The ability of MRSA and P. aeruginosa to form biofilms on propylene surfaces in the presence of bis-Args was determined. The two bacterial cells were kept in contact with the gemini surfactants at different concentrations from 2 to 128 μg/mL for 24 h. Then, the percentage of biofilm inhibition was determined.
as §2
(§5) Biofilm inhibition procedure: 100 μL of the gemini surfactant at different concentration values was added to each well in a 96-well microplate, then, 100 μL of the diluted bacterial suspension was added to the wells. Two-fold serial dilutions of the gemini surfactants to be tested were used (2–128 μg/mL). Microtiter plates were incubated at 37 °C for 24 h. Spent growth media was then discarded and biofilm was fixed with 150 μL methanol for 10 min. After the plates were air dried, the biofilms were stained with 50 μL of 0.1 of % crystal violet for 25 min. The plates were rinsed with water and then 150 μL of 96% ethanol containing 10% acetic acid was added to all 96-well plates to dissolve the remaining crystal violet-stained biofilm. The absorbance value was recorded at 570 nm. Each assay was performed at least three times and the results were averaged.

[8] = test system: methicillin-resistant Staphylococcus aureus (MRSA) ATCC 43300 biofilm; experiment: Biofilm inhibition, crystal violet; format: cell-based; conditions: 24 h contact, 2–128 μg/mL tested
Experimental: as §4, §2, §5

[9] = Cell viability, NRU assay; format: cell-based, human; conditions: human, HaCaT cells (immortal human keratinocytes); NRU, HaCaT, surfactant in solution at 35.6 µg/mL, 24 h; read-out: cellular viability
Experimental: (§6) The immortal human keratinocyte (HaCaT) and the squamous cell carcinoma (A431) were obtained from Celltec, University of Barcelona. The cells were grown in DMEM medium (4.5 g/L glucose) supplemented with 10% (v/v) FBS, 2 mM L-glutamine, 100 U/mL of penicillin and 100 μg/mL of streptomycin at 37 °C under 5% CO2. Cells were routinely cultured in 75 cm^2 culture flasks and were trypsinized using trypsin-EDTA when reached approximately 80% of confluence.
(§7) HaCaT cells (1 × 10^5 cells/mL) and A431 cells (5 × 10^4 cells/mL) were grown at the defined densities into the central 60 wells of a 96-well microplate. Cells were incubated for 24 h under 5% CO2 at 37 °C. The medium was then removed and the cells were incubated with the surfactants (100 μL), previously diluted 1:1 (v/v), reaching a concentration of […] in DMEM medium supplemented with 5% FBS using two different colorimetric methods for quantification, as follows.
(§8) The accumulation of the neutral red dye in the lysosomes of viable, undamaged cells constitutes the basis of the neutral red uptake (NRU) assay. After the cells were incubated for 24 h with the corresponding systems at 35.6 µg/mL, the medium was removed and the surfactants´ solutions were incubated for 3 h with the NRU dye solution (50 μg/mL) dissolved in the medium without FBS and phenol red (Lonza). Cells were then washed with sterile PBS, followed by the addition of 100 μL of a solution containing 50% ethanol absolute and 1% acetic acid in distilled water to extract the non-adhered dye. The microplates were then stirred for 5 min at 25 °C to promote the dissolution. Finally, the absorbance of the resulting solutions was measured at λ = 550 nm using a Bio-Rad 550 microplate reader (Hercules, CA, USA).

[10] = test system: squamous cell carcinoma (A431); experiment: Cell viability, NRU assay; format: cell-based; conditions: A431, surfactant in solution at 35.6 µg/mL, 24 h
Experimental: as §6, §7, §8

[11] = parameters: method as in doi:10.1021/la981295l; conditions: cited from earlier work; remark: listed apart in the source
[12] = biological target: porcine pancreatic elastase (Sus scrofa, UniProt P00772); experiment: Elastase inhibitory assay; format: biochemical; conditions: 40 µL of 1000 µg/mL stock; EGCG 250 μM
Experimental: The elastase inhibition was tested according to the method described by […] et al.. First, a stock solution of each surfactant at 1000 μg/mL was prepared in sterile ultrapure water. A stock solution of porcine pancreatic elastase at 3.33 mg/mL in sterile ultrapure water was also prepared. The substrate […] (Ala) 3-p-nitroanilide was dissolved in 0.2 mM Tris-HCl buffer solution (pH 8.0). The samples (40 μL) were then diluted and incubated together with the enzyme for 15 min prior to the substrate addition. Negative control was sterile ultrapure water, while EGCG (250 μM or 0.114 mg/mL) was used as the positive control. The absorbance at λ = 410 nm was measured immediately after the substrate addition and continuously during the next 2 h using an Elx800 Microplate Reader (Biotek®). […] The anti-elastase activity (in %), determined in triplicate, was calculated according to the following equation:(2) Elastase inhibitory activity %=A1-A2/A1×100 where A1 and A2 represent the absorbance in the absence and presence of the testing samples, respectively.

bovine hyaluronidase = experiment: Hyaluronidase inhibitory activity; format: biochemical; conditions: negative inhibition values
Experimental: The hyaluronidase inhibitory activity was performed according to the method used by Altinyay et al. with some modifications. Briefly, a work solution containing bovine hyaluronidase (7900 units/mL) in 0.1 M acetate buffer (pH 3.6) was prepared. Fifty microliters of the work solution were mixed 1:1 with the surfactants’ solution in 5% DMSO. For the negative control, 50 μL of 5% DMSO was used, while EGCG was used as positive control. After 20 min of incubation at 37 °C, 50 μL of calcium chloride (12.5 mM) was added to the mixture and again incubated for 20 min at 37 °C. At that point, 250 μL sodium hyaluronate (1.2 mg/mL) was added and incubated for 40 min at 37 °C. After incubation, the mixture was treated with 50 μL of 0.4 M NaOH and 100 μL of 0.2 M sodium borate and then incubated for 3 min in a boiling water bath. After cooling to room temperature, 1.4 mL of p-dimethylaminobenzaldehyde solution was added to the reaction mixture, being further incubated at 37 °C for 20 min. The resulting colored solution was measured at λ = 585 nm (PerkinElmer-Lambda 35, Brazil). The hyaluronidase inhibitory activity of each sample was calculated according to the following formula:(3) Hyaluronidase inhibitory activity %=A1−A2/A1×100 where A1 and A2 represent the absorbance in the absence and presence of the testing sample, respectively.

Sequence of porcine pancreatic elastase (P00772 27-266): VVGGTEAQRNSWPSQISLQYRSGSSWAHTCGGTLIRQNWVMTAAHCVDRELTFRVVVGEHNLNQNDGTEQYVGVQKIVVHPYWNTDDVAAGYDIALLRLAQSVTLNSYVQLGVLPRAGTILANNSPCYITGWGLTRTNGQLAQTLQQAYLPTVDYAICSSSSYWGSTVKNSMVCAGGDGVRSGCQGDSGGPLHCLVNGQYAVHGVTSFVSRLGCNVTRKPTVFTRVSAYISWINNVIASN

| pKap [1] | anti-elastase activity (inhibition) [12] [%] | increase of hyaluronidase enzymatic activity (bovine hyaluronidase) [%] | Compound | CMC (mM) Conductivity [2] | CMC (mM) Fluorescence [3] | preformed biofilm eradicated [4] | preformed biofilm eradicated [5] | antimicrobial activity (MIC), in words [6] | concentration that inhibits biofilm formation [7] [µg/mL] | concentration that inhibits biofilm formation [8] [µg/mL] | viability at 24 h, 35.6 µg/mL [9] [%] | cytotoxicity, in words [10] | CMC (mM) Surface Tension [11] | γcmc ([11]; surface tension at the cmc) |
| --- | --- | --- | --- | --- | --- | --- | --- | --- | --- | --- | --- | --- | --- | --- |
| 10.9 | – | – | CCCCCCCCCCCC(=O)NC(CCCNC(=N)N)C(=O)NCC(O)CNC(=O)C(CCCNC(=N)N)NC(=O)CCCCCCCCCCC (stereo not drawn) [C3(LA)2OH, Bis (N^α-lauroyl arginine) (2-hydroxy-1,3-propane) diamide] | 0.6 * mM | 0.6 * mM | – | – | – | – | – | – | – | – | – |
| – | – | – | CCCCCCCC(=O)NC(CCCNC(=N)N)C(=O)NCCCNC(=O)C(CCCNC(=N)N)NC(=O)CCCCCCC (stereo not drawn) [C3(OA)2] | – | 8 * mM | less than 30% | less than 30% | lowest antimicrobial efficiency (highest MIC values) | 128 | 128 | – | – | – | – |
| 10.5 | 10.5 | 47.2 | CCCCCCCCCCCC(=O)NC(CCCNC(=N)N)C(=O)NCCCCCCNC(=O)C(CCCNC(=N)N)NC(=O)CCCCCCCCCCC (stereo not drawn) [C6(LA)2] | 0.4 * mM | 0.4 * mM | – | – | – | – | – | 99.3 | did not cause any apparent cytotoxicity | 0.002 * mM | 30 * mN/m |
